# Laboratory results: ChEMBL document CHEMBL1127955, “Enantioselective synthesis of the optical isomers of broad-spectrum orally active antifungal azoles, Sch 42538 and Sch 45012” (1994)
# Where “and” joins values, the source holds several entries; their conditions need not be identical. Identical values can stand only once.
# Columns and labels:
# Type in all cases: functional
# [1] = species on record: Mus musculus; test: Compound was tested for the oral activity in CF-1 mice infected with Aspergillus flavus by sabouraud dextrose broth of pH 5.7 duration of 72 h; set-up: unit not given here
# [2] = tested on: Mus musculus; test: Compound was tested for the oral activity in CF-1 mice infected with Aspergillus flavus at a dose of 66 mg/kg of 4 days post infection; settings: for Survival: 66 mg/kg; for survival at 66 mg/kg: Mus musculus, po, 96 h
# [3] = tested on: Mus musculus; test: Compound was tested for the colony forming units of Aspergillus flavus in mice at a dose of 100 mg/kg expressed as geometric mean
# [4] = species on record: Mus musculus; test: Compound was tested for the oral activity in CF-1 mice infected with C. Albicans in eagles essential medium at pH 7.0 duration of 48 h; set-up: unit not given here
# [5] = tested on: Mus musculus; test: Compound was tested for the oral activity in CF-1 mice infected with Aspergillus flavus at a dose of 100 mg/kg of 4 days post infection; settings: for Survival: 100 mg/kg; for survival at 100 mg/kg: Mus musculus, po, 96 h
# [6] = tested on: Mus musculus; test: Compound was tested for the colony forming units of C. Albicans in mice at a dose of 10 mg/kg expressed as geometric mean
# [7] = tested on: Mus musculus; test: Compound was tested for the oral activity in CF-1 mice infected with C. Albicans at a dose of 50 mg/kg of 4 days post infection; settings: for Survival: 50 mg/kg; for survival at 50 mg/kg: Mus musculus, po, 96 h
# [8] = tested on: Mus musculus; test: Compound was tested for the oral activity in CF-1 mice infected with C. Albicans at a dose of 25 mg/kg of 4 days post infection; settings: for Survival: 25 mg/kg; for survival at 25 mg/kg: Mus musculus, po, 96 h
# [9] = tested on: Mus musculus; test: Compound was tested for the colony forming units of Aspergillus flavus in mice at a dose of 66 mg/kg expressed as geometric mean
# [10] = tested on: Mus musculus; test: Compound was tested for the colony forming units of C. Albicans in mice at a dose of 25 mg/kg expressed as geometric mean
# [11] = tested on: Mus musculus; test: Compound was tested for the oral activity in CF-1 mice infected with C. Albicans at a dose of 10 mg/kg of 4 days post infection
# [12] = tested on: Mus musculus; test: Compound was tested for the colony forming units of C. Albicans in mice at a dose of 50 mg/kg expressed as geometric mean
SMILES,MIC [1],Survival [2] [%],CFU [3],MIC [4],Survival [5] [%],CFU ([6]; 10 mg/kg),Survival [7],Survival [8] [%],CFU [9],CFU ([10]; 25 mg/kg),Survival ([11]; 10 mg/kg),CFU ([12]; 50 mg/kg),survival at 100 mg/kg [5] [%],survival at 66 mg/kg [2] [%],survival at 50 mg/kg [7] [%],survival at 25 mg/kg [8] [%],CFU [10],CFU [12],CFU [6],"survival at 10 mg/kg ([11]; Mus musculus, po, 96 h) [%]"
"CCC(C)n1ncn(-c2ccc(N3CCN(c4ccc(OC[C@@H]5COC(Cn6cncn6)(c6ccc(F)cc6F)C5)cc4)CC3)cc2)c1=O (single isomer, unassigned)",0.0625,50,1.95,0.0039,100,7.42 and 5.92,100%,100,2.25,5.14,40% and 90%,4.99,–,–,–,–,–,–,–,–
"CC[C@@H](C)n1ncn(-c2ccc(N3CCN(c4ccc(OC[C@@H]5COC(Cn6cncn6)(c6ccc(F)cc6F)C5)cc4)CC3)cc2)c1=O (single isomer, unassigned)",>8,0,–,0.0313,10,–,0%,0,–,9,–,9,–,–,–,–,–,–,–,–
"CCC(C)n1ncn(-c2ccc(N3CCN(c4ccc(OC[C@H]5CO[C@](Cn6cncn6)(c6ccc(F)cc6F)O5)cc4)CC3)cc2)c1=O (single isomer, unassigned) [SAPERCONAZOLE]",0.0313,–,–,0.0039,–,–,20% and 0%,–,–,–,–,8.2 and 9,0,–,–,–,–,–,–,–
"CC[C@H](C)n1ncn(-c2ccc(N3CCN(c4ccc(OC[C@@H]5COC(Cn6cncn6)(c6ccc(F)cc6F)C5)cc4)CC3)cc2)c1=O (single isomer, unassigned) [SCH-49999]",>8,–,–,0.0625,–,–,–,–,–,–,–,–,20,0,20,0,9,7.84,–,–
CCC(C)n1ncn(-c2ccc(N3CCN(c4ccc(OC[C@@H]5CO[C@@](Cn6cncn6)(c6ccc(Cl)cc6Cl)O5)cc4)CC3)cc2)c1=O (stereo partly drawn) [ITRACONAZOLE],0.125,–,–,0.0078,–,–,–,–,–,–,–,–,20,0,60,0,9,6.68,8.87,10
